Where “and” joins values, the source holds several entries; their conditions need not be identical. Equal values may be shown once. Read-outs that look alike come from different tables or passages of the source.
Experiment: Plasma AT2220 (1-deoxynojirimycin hydrochloride) pharmacokinetics by LC-MS/MS in Pompe patients
Assay type: in vivo, human
Conditions: for Tmax / half-life / AUC(0-t) / AUC(0-inf) / Cmax: human, plasma
Procedure: Blood samples for pharmacokinetic analysis will be collected before dosing 1-deoxynojirimycin hydrochloride and at 1 hour after administration of 1-deoxynojirimycin hydrochloride (i.e., immediately before initiation of the alglucosidase alfa infusion) and over the 24-hour period after initiation of the alglucosidase alfa infusion. Plasma and WBC GAA enzyme activity, plasma 1-deoxynojirimycin hydrochloride concentrations and plasma anti-rhGAA antibody titer will be determined from the collected blood samples at the times summarized in Table 2. A 12-lead ECG will be performed at the end of the alglucosidase alfa infusion, immediately after collection of the post-infusion blood sample.
Concentrations of 1-deoxynojirimycin hydrochloride in blood samples will be measured in plasma using a validated LC-MS/MS assay. GAA activity in plasma will be determined by a validated assay measuring enzyme activity using 4-MUG, with and without Con A. GAA protein levels will be measured by Western blotting using anti-human GAA antibody.
Non-compartmental pharmacokinetic parameters of AUC0-t, AUCinfinity, Cmax, tmax, kel and half-life will be calculated from plasma 1-deoxynojirimycin hydrochloride concentrations and plasma rhGAA enzyme levels. Pharmacokinetic parameters will be summarized by treatment using descriptive statistics. The AUC0-t, AUCinfinity ratios for GAA enzyme activity alone or after administration with 1-deoxynojirimycin hydrochloride will be calculated. Pharmacokinetic and pharmacodynamic data for those subjects receiving Myozyme® and Lumizyme® will be analyzed separately.

[1] = Cohort 3, 250 mg AT2220, Max, N=6
[2] = Cohort 3, 250 mg AT2220, Min, N=6
[3] = Cohort 3, 250 mg AT2220, individual subjects

OC[C@H]1NC[C@H](O)[C@@H](O)[C@@H]1O [AT2220, (2R,3R,4R,5S)-2-hydroxymethyl-piperidine-3,4,5-triol]
linearity of plasma pharmacokinetics (50 mg and 100 mg doses): approximately linear
linearity of plasma pharmacokinetics (50 mg and 100 mg doses, listed as 1-DNJ-HCl): approximately linear PK
increase in Cmax and AUC with dose (50 mg to 100 mg): ~2 fold
Plasma AT2220 AUC0-∞ Ratio (100 mg AT2220 (N = 6) relative to 50 mg): 1.9
AUC0-∞ Ratio, plasma AT2220 (100 mg vs 50 mg dose): 1.9
Plasma AT2220 AUC0-∞ Ratio (250 mg AT2220 (N = 6) relative to 50 mg): 3.2
Plasma AT2220 AUC0-T [1]: 29670 ng·h/mL
Plasma AT2220 AUC0-∞ [1]: 29916 ng·h/mL
Plasma AT2220 Cmax [1]: 4750 ng/mL
Plasma AT2220 T½ [1]: 4.6 h
Plasma AT2220 AUC0-T [2]: 18321 ng·h/mL
Plasma AT2220 AUC0-∞ [2]: 18711 ng·h/mL
Plasma AT2220 Cmax [2]: 2090 ng/mL
Plasma AT2220 Tmax [2]: 2.0 h
Plasma AT2220 T½ [2]: 3.0 h
Plasma AT2220 AUC0-T [3]: 19344 ng·h/mL and 29670 ng·h/mL and 22230 ng·h/mL and 18321 ng·h/mL and 24278 ng·h/mL
Plasma AT2220 AUC0-∞ [3]: 19534 ng·h/mL and 29916 ng·h/mL and 22345 ng·h/mL and 18711 ng·h/mL and 24558 ng·h/mL
Plasma AT2220 Cmax [3]: 2090 ng/mL and 2740 ng/mL and 4750 ng/mL and 3620 ng/mL and 2350 ng/mL and 4220 ng/mL
Plasma AT2220 Tmax [3]: 2.0 h
Tmax (both sexes, oral, 50 mg and 100 mg doses, read-out: rate of absorption (Tmax)): 2 to 3 h
increase in mean AUC, plasma AT2220 (from 50 mg to 100 mg): 1.9 fold
increase in mean Cmax, plasma AT2220 (from 50 mg to 100 mg): 1.8 fold
half-life (oral, 50 mg, 50 mg AT2220 (N = 4), Cohort 1, Arithmetic mean (SD), read-out: Plasma AT2220 t½ (converted)): 3.1 h
AUC(0-t) (oral, 50 mg, 50 mg AT2220 (N = 4), Cohort 1, Geometric mean (CV %), read-out: Plasma AT2220 AUC0-T): 6970 ng·h/mL
AUC(0-inf) (oral, 50 mg, 50 mg AT2220 (N = 4), Cohort 1, Geometric mean (CV %), read-out: Plasma AT2220 AUC0-∞): 7010 ng·h/mL
Cmax (oral, 50 mg, 50 mg AT2220 (N = 4), Cohort 1, Geometric mean (CV %), read-out: Plasma AT2220 Cmax): 1040 ng/mL
Tmax (oral, 50 mg, 50 mg AT2220 (N = 4), Cohort 1, Median (range), read-out: Plasma AT2220 Tmax): 2 h
half-life (oral, 100 mg, 100 mg AT2220 (N = 6), Cohort 2, Arithmetic mean (SD), read-out: Plasma AT2220 t½ (converted)): 3.4 h
AUC(0-t) (oral, 100 mg, 100 mg AT2220 (N = 6), Cohort 2, Geometric mean (CV %), read-out: Plasma AT2220 AUC0-T): 13000 ng·h/mL
AUC(0-inf) (oral, 100 mg, 100 mg AT2220 (N = 6), Cohort 2, Geometric mean (CV %), read-out: Plasma AT2220 AUC0-∞): 13100 ng·h/mL
Cmax (oral, 100 mg, 100 mg AT2220 (N = 6), Cohort 2, Geometric mean (CV %), read-out: Plasma AT2220 Cmax): 1860 ng/mL
Tmax (oral, 100 mg, 100 mg AT2220 (N = 6), Cohort 2, Median (range), read-out: Plasma AT2220 Tmax): 3 h
half-life (oral, 250 mg, 250 mg AT2220 (N = 6), Cohort 3, Arithmetic mean (SD), read-out: Plasma AT2220 t½ (converted)): 3.7 h
AUC(0-t) (oral, 250 mg, 250 mg AT2220 (N = 6), Cohort 3, Geometric mean (CV %), read-out: Plasma AT2220 AUC0-T): 21800 ng·h/mL
AUC(0-inf) (oral, 250 mg, 250 mg AT2220 (N = 6), Cohort 3, Geometric mean (CV %), read-out: Plasma AT2220 AUC0-∞): 22100 ng·h/mL
Cmax (oral, 250 mg, 250 mg AT2220 (N = 6), Cohort 3, Geometric mean (CV %), read-out: Plasma AT2220 Cmax): 3150 ng/mL
Tmax (oral, 250 mg, 250 mg AT2220 (N = 6), Cohort 3, Median (range), read-out: Plasma AT2220 Tmax): 2 h
AUC(0-t) (oral, 250 mg, Cohort 3, 250 mg AT2220, Geometric Mean, N=6, read-out: Plasma AT2220 AUC0-T): 21800 ng·h/mL
AUC(0-inf) (oral, 250 mg, Cohort 3, 250 mg AT2220, Geometric Mean, N=6, read-out: Plasma AT2220 AUC0-∞): 22100 ng·h/mL
Cmax (oral, 250 mg, Cohort 3, 250 mg AT2220, Geometric Mean, N=6, read-out: Plasma AT2220 Cmax): 3150 ng/mL
Tmax (oral, 250 mg, Cohort 3, 250 mg AT2220, Geometric Mean, N=6, read-out: Plasma AT2220 Tmax): 2.3 h
half-life (oral, 250 mg, Cohort 3, 250 mg AT2220, Geometric Mean, N=6, read-out: Plasma AT2220 T½ (converted)): 3.7 h
AUC(0-t) (oral, 250 mg, Cohort 3, 250 mg AT2220, Mean, N=6, read-out: Plasma AT2220 AUC0-T): 22100 ng·h/mL
AUC(0-inf) (oral, 250 mg, Cohort 3, 250 mg AT2220, Mean, N=6, read-out: Plasma AT2220 AUC0-∞): 22400 ng·h/mL
Cmax (oral, 250 mg, Cohort 3, 250 mg AT2220, Mean, N=6, read-out: Plasma AT2220 Cmax): 3300 ng/mL
Tmax (oral, 250 mg, Cohort 3, 250 mg AT2220, Mean, N=6, read-out: Plasma AT2220 Tmax): 2.3 h
half-life (oral, 250 mg, Cohort 3, 250 mg AT2220, Mean, N=6, read-out: Plasma AT2220 T½ (converted)): 3.7 h
AUC(0-t) (oral, 250 mg, Cohort 3, 250 mg AT2220, Median, N=6, read-out: Plasma AT2220 AUC0-T): 20800 ng·h/mL
AUC(0-inf) (oral, 250 mg, Cohort 3, 250 mg AT2220, Median, N=6, read-out: Plasma AT2220 AUC0-∞): 20900 ng·h/mL
Cmax (oral, 250 mg, Cohort 3, 250 mg AT2220, Median, N=6, read-out: Plasma AT2220 Cmax): 3180 ng/mL
Tmax (oral, 250 mg, Cohort 3, 250 mg AT2220, Median, N=6, read-out: Plasma AT2220 Tmax): 2 h
half-life (oral, 250 mg, Cohort 3, 250 mg AT2220, Median, N=6, read-out: Plasma AT2220 T½ (converted)): 3.6 h
AUC(0-t) (oral, 250 mg, Cohort 3, 250 mg AT2220, individual subjects, read-out: Plasma AT2220 AUC0-T): 18700 ng·h/mL
AUC(0-inf) (oral, 250 mg, Cohort 3, 250 mg AT2220, individual subjects, read-out: Plasma AT2220 AUC0-∞): 19300 ng·h/mL
Tmax (oral, 250 mg, Cohort 3, 250 mg AT2220, individual subjects, read-out: Plasma AT2220 Tmax): 3 h
half-life (oral, 250 mg, Cohort 3, 250 mg AT2220, individual subjects, read-out: Plasma AT2220 T½ (converted)): 4.6 h
half-life (po, 50 mg, 50 mg single oral dose (N=4), arithmetic mean (SD), read-out: t½, plasma AT2220 (converted)): 3.1 h
AUC(0-t) (po, 50 mg, 50 mg single oral dose (N=4), geometric mean (CV %), read-out: AUC0-T, plasma AT2220): 6970 ng·h/mL
AUC(0-inf) (po, 50 mg, 50 mg single oral dose (N=4), geometric mean (CV %), read-out: AUC0-∞, plasma AT2220): 7010 ng·h/mL
Tmax (po, 50 mg, 50 mg single oral dose (N=4), median (range), read-out: Tmax, plasma AT2220): 2 h
Cmax (po, 50 mg, 50 mg single oral dose (N=4, Cohort 1), geometric mean (CV %), read-out: Cmax, plasma AT2220): 1040 ng/mL
half-life (po, 100 mg, 100 mg single oral dose (N=6), arithmetic mean (SD), read-out: t½, plasma AT2220 (converted)): 3.4 h
AUC(0-t) (po, 100 mg, 100 mg single oral dose (N=6), geometric mean (CV %), read-out: AUC0-T, plasma AT2220): 13000 ng·h/mL
AUC(0-inf) (po, 100 mg, 100 mg single oral dose (N=6), geometric mean (CV %), read-out: AUC0-∞, plasma AT2220): 13100 ng·h/mL
Tmax (po, 100 mg, 100 mg single oral dose (N=6), median (range), read-out: Tmax, plasma AT2220): 3 h
Cmax (po, 100 mg, 100 mg single oral dose (N=6, Cohort 2), geometric mean (CV %), read-out: Cmax, plasma AT2220): 1860 ng/mL
increase in mean AUC, plasma AT2220 (to 250 mg): 3.2 fold
increase in mean Cmax, plasma AT2220 (to 250 mg): 3.0 fold
